These results are taken from US11919854B2, “P2RX7 modulators in therapy” (Centre national de la recherche scientifique, priority 2018, dated 2024).

Series [1] deals with B16F10 cells. Kind of series: Syngeneic tumor mice model, B16F10 subcutaneous. The series is classed as in vivo, C57BL/6 mice. On the procedure:
5×10^5 B16F10 cells were injected sub cutaneously in the right flank of C57BL/6 mice. Mice received HEI2328 (n=8, ip, 2.3 mg/kg in 10% DMSO/PBS) daily or placebo (n=8, 10% DMSO/PBS). A. incidence of tumor appearance B. Tumor size (mm2) and C. tumor weight at sacrifice day (J12). *, p<0.05 (Mann-Whitney test).
5×10^5 LLC or 5×10^5 B16F10 cells were injected sub cutaneously in the right flank of C57BL6 mice. Mice received HEI3090 (ip, 2.5 mg/kg in 10% DMSO/PBS) daily or placebo (10% DMSO/PBS). A,C. incidence of tumor appearance B,D. Tumor size (mm2) and tumor weight at sacrifice day (J12). E. HEI-treated tumors are more immunogenic. Expression of CMH1 (H2K^b/D^b) and PD-L1 by LLC (black) and B16F10 (grey) tumors is shown in dot plots. Numbers highlighted the percentage of tumor cells positive for H2K^b/D^b and PD-L1. […] F. CD-45 positive infiltrates is increased in LLC and B16F10 tumors. *, p<0.05; **, p<0.01; ***, p<0.001 Mann-Whitney test.
5×10^5 LLC or 5×10^5 B16F10 cells were injected sub cutaneously in the right flank of C57BL6 mice. Mice received HEI3090 (ip, 2.5 mg/kg in 10% DMSO/PBS) daily or placebo (10% DMSO/PBS). A. The quantity of immunosuppressive cells is reduced. Dot plot of representative experiment. Numbers highlighted the percentage of M-MDSC and PMN-MDSC. […] B. The quantity of effector T cells ([…], NK, CD4+) is increased.
Therefore the inventors tested this compound on a classical tumor mice model. 5×10^5 B16F10 cells (in 200 μl PBS) were injected subcutaneously in the right flank of C57B16 mice that received a daily intraperitoneal injection of 2.3 mg/kg HEI2328 (in PBS/10% DMSO) or placebo (PBS/10% DMSO) for 12 days. […] However, this encouraging result was not statistically significant.
4.2. By killing tumoral cells, HEI3090 may represent a new anti-tumor treatment. To test this hypothesis, immunocompetent C57B16J mice were subcutaneously injected with 5×10^5 B16F10 or 5×10^5 LLC (Lewis Lung Cancer) cells and treated daily with HEI3090 (ip, 2.5 mg/kg in 10% DMSO/PBS) or placebo (10% DMSO/PBS). […] In both tumor mice models, tumors weight in the treated group was reduced by 10-fold in the B16F10 model (8 mg vs 81 mg) and by 4-folds in the LLC model (80 mg vs 295 mg). Of interest, tumors from the HEI3090 treated group are more immunogenic than tumors from the placebo group.

The nature of series [2]: Solubility (qualitative statement). The series is classed as physicochemical.
In series [3] the test system is B16F10 melanoma cell line. The series can be described thus: Large pore opening (Topro3) in B16F10 melanoma cell line. Type of series: cell-based. The method, then: Calcium channel activity (Fluo4AM probe) and large pore opening (Topro3 probe) were analysed by FACS. Unstimulated (NS) or cells treated with HEI2328 (50 μM) alone or with BzATP (500 μM) were analysed. (A) Representative dots plots. Numbers highlighted the percentage of positive cells.
(§1) A. Large pore opening. Dot plot of representative experiment. Numbers highlighted the percentage of positive cells. […] B. representative curve of XTT absorbance over the time. […] Mean±SEM are shown. ***, p<0.001; ****, p<0.0001 Mann-Whitney test.
4.1. […] To test this hypothesis, immunocompetent C57B6J (Envigo, Gannat France) mice were injected with the melanoma cell line B16-F10.
(§2) Of interest, potentiation of large pore opening correlated with increased-B16F10 cell death, as illustrated in FIG. 9. Cells treated during 1 h with BzATP and HEI3090 incorporated 3-fold more Topro3 than cells treated with BzATP only (FIG. 9A). Longer incubation increased cell death, since it was observed up to 80% of dead cells after 3 h treatment (FIG. 9B).

Series [4] is described as follows: Stability in mouse liver microsomes. Type of series: in vitro ADME. As to conditions: 1 μM; 0, 5, 10, 20, 30 and 40 min; mass spectrometry. On the procedure: A. HEI-2328 and -3090 are stable molecules. Mouse liver microsomes from BD Gentest (ref 5345001) were incubated with HEI-2314, -2328, -2333 and -3090 at 1 μM for 0, 5, 10, 20, 30 and 40 min. The stability of the compounds was assayed by mass spectrometry.
Stability was studied in the mouse liver microsome system—and human, not shown—(FIG. 13A) and directly in vivo, for HEI3090 molecule (FIG. 13B). These experiments highlighted that HEI3090 is found at a concentration of maximum 2.5 μM in the plasma of mice injected with HEI3090 (ip, 1.5 mg/kg in 10% DMSO).
(Liver microsomes are a subcellular fraction often used to study metabolism.)

The subject of series [5] is B16F10 cells. The series can be described thus: B16F10 cell death (XTT absorbance). The series is classed as cell-based, mouse. To be noted: 3 h treatment with BzATP and HEI3090. On the procedure:
as §1, §2
For orientation: Formazan colour is commonly taken as a measure of viable cells.

The subject of a further series is LLC. Kind of series: LLC tumor growth, HEI3090 combined with anti-PD-1 checkpoint inhibitor. The series is classed as in vivo, C57BL6J mice. On the procedure: b-g Effect of HEI3090 and anti PD-1 checkpoint inhibitor on LLC tumor growth. 5.105 LLC were injected s.c. into the flank of C57BL6J mice. Mice were treated i.p. with vehicle (PBS, 10% DMSO) or with HEI3090 (1.5 mg/kg in PBS, 10% DMSO) from day 1 to day 18. Each mouse received 200 μg of anti PD-1 i.p. at day 4.7.10.13 and 16. Tumor sizes were measured from day 1 to day 90. Mice were sacrificed when tumor reached 100 mm2. For contralateral re-challenge, cured mice or naive age matched C57BL6J mice were injected s.c. in the opposite flank with 2.105 LLC. At day 150, re-challenged treated mice or C57BL/6J naive mice were sacrificed to sort CD8+ T cells. 2.105 CD8+ T cells were adoptively transferred in other C57BL6J naive mice. Then mice were injected s.c with 2.105 LLC (b). Spaghetti plots of LLC tumor growth of vehicle and anti-PD-1 treated mice or HEI3090 and anti-PD-1 treated mice (c). Each curve represents one mouse. Survival curves of mice treated with vehicle or HEI3090 and isotype control or vehicle or HEI3090 and anti-PD-1 (d). Tumor growth and survival curves after re-challenge of cured mice treated with HEI3090 and anti-PD-1 or age matched C57BL/6J mice (e,f). Tumor growth after i.v. injection of CD8+ T cells from naïve mice or re-challenged treated mice (g).

`O=C(NCc1ccc(Cl)cc1Cl)[C@@H]1CCC(=O)N1C(=O)Nc1ccc(Cl)c(Cl)c1` [HEI2328, (S)—N^2-(2,4-Dichlorobenzyl)-N^1-(3,4-dichlorophenyl)-5-oxopyrrolidine-1,2-dicarboxamide]: in the series with B16F10 cells [1] (HEI2328 2.3 mg/kg ip daily, 12 days), the tumor incidence result was “delayed”. The “decrease of tumor growth” value with B16F10 cells [1] (HEI2328 2.3 mg/kg ip daily, 12 days, not statistically significant) is reported as 20%. The solubility result in series [2] is “poorly soluble”. The “increase of large pore opening (Topro3 positive cells)” value in series [3] (HEI2328 50 μM added on BzATP (500 μM) treated cells) was “more than 6 fold”. Besides, the “toxic effect of compound alone” value in series [3] (absence of BzATP, 50 μM) is given as “no toxic effect”. Moreover, the “stability in mouse liver microsomes” value in series [4] was “stable”.

In the case of `O=C(NCc1ccc(Cl)cc1Cl)[C@@H]1CCC(=O)N1C(=O)Nc1ccc(Cl)nc1` [HEI3090, (S)—N^1-(6-Chloropyridin-3-yl)-N^2-(2,4-dichlorobenzyl)-5-oxopyrrolidine-1,2-dicarboxamide], the “immunosuppressive cells (M-MDSC) in tumor infiltrates” value in the series on B16F10 cells [1] (HEI3090 ip 2.5 mg/kg daily) is recorded as “less M-MDSC”. Besides, the tumors weight with B16F10 cells [1] (HEI3090 ip 2.5 mg/kg daily (placebo 81 mg)) was found to be 8 mg. Further, the “reduction of tumors weight” value in the series on B16F10 cells [1] (HEI3090 ip 2.5 mg/kg daily, vs placebo) was 10 fold. Besides, the solubility entry in series [2] is on record as “more soluble”. Further, the dead cells entry in the series with B16F10 cells [5] is on record as “up to 80%”. In addition, the “Topro3 incorporation vs cells treated with BzATP only” value in series [3] (1 h with BzATP and HEI3090) was determined as 3 fold. The “stability in mouse liver microsomes” value in series [4] is “stable”. In addition, in the series with LLC (HEI3090 1.5 mg/kg ip day 1-18 combined with anti PD-1 200 μg ip), the “cure of tumor bearing mice” value was “cured mice bearing tumors”. In addition, the “memory T cell response” value in the series with LLC (HEI3090 combined with anti PD-1, re-challenge of cured mice) is recorded as “set up a memory T cell response”.
